Values of other authors, collected in patent US20100310475A1, “Biocide Capsules, Preparation Comprising them and Sanitary Pad Comprising the Preparation” (DOLHAY KLINIKA EG[…]., priority 2007, published 2010).

System: pathogens
Conditions: water solution

polyvinyl-pyrrolidone iodine [PVP-iodine]
most effective concentration-range: 0.01-1 % by weight
